Measured values taken from US20100292231A1, “Indazole Compounds for Treating Inflammatory Disorders, Demyelinating Disorders and Cancers” (priority 2007, published 2010).
Like-named read-outs stand apart in the source and are kept apart here.

Experiments:
EPHB2 = target: T1, EPHB2 (Homo sapiens, UniProt P29323); experiment: SelectScreen kinase specificity survey; assay type: biochemical; settings: estimated, abridged dose response curve, read-out: Kinase inhibitory activity EC50
T1 construct: purchased Invitrogen (SelectScreen service)
Procedure: (§1) Testing of the compounds described in this invention was carried out using the SelectScreen™ platform from Invitrogen, Inc. (Carlsbad. Calif., USA) and the details of its performance are readily viewed via the web by linking to: http://www.invitrogen.com/downloads/SelectScrn_Brochure.pdf.
(§2) Briefly, the approach is based on treating each specific kinase with a unique substrate and optical reporter system in the presence of ATP at 100 micromolar. In controls, the substrate is phosphorylated and a baseline optimal response is recorded.
(§3) The compounds were then re-tested by adding graded amounts of putative inhibitor which were added in 5 separate increments to generate a dose response curve. The latter is obtained by fitting to a 4 parameter Hill equation, a sigmoid saturation equation.
(§4) The same assay system described in Example 2 can be applied in the determination of kinase specificity. It is well understood by medicinal chemists in the development of kinase inhibitors that the resulting molecules often lack specificity. Not only are homologous kinases inhibited by the same class of compounds, but also non-homologous kinases can be affected by allosteric, induced, activated vs inactivated conformation, and protein folding interactions with the putative inhibitor, which otherwise had been designed to be specific. These off target effects are difficult to predict and can only be ruled in or out by empirically surveying a large set of kinases. It is also understood that changes to scaffolds and variation in their chemical decorations may influence the extent of promiscuity in the patterns of kinase inhibition across kinase classes.
(§5) The following experiment was conducted to address this issue. The indazole compound (IV), described in Example 2 and representative of the new genus was tested along with Symadex against a panel of 230 kinases representative of all known kinases classes. Included in the survey were the Flt3, its mutant, and close relatives in the Class III receptor tyrosine kinase class, together with serine-threonine kinases and atypical kinases many of which share no homology of active site with Flt3 as shown, for example, in the respective “genecard” for each kinase and available for inspection at on the web at http://www.genecards.org/.
(§6) Table 3 lists the estimated EC50 values from an abridged dose response curve for Symadex (C-1311) and CF-123. The kinases are listed alphabetically by Group and Family.

MATK (HYL, CTK) = target: T2, MATK (HYL, CTK) (Homo sapiens, UniProt P42679); experiment: SelectScreen kinase specificity survey; assay type: biochemical; settings: estimated, abridged dose response curve, read-out: Kinase inhibitory activity EC50
T2 construct: purchased Invitrogen (SelectScreen service)
Procedure: as §1, §2, §3, §4, §5, §6

DYRK3 = target: T3, DYRK3 (Homo sapiens, UniProt O43781); experiment: SelectScreen kinase specificity survey; assay type: biochemical; settings: estimated, abridged dose response curve, read-out: Kinase inhibitory activity EC50
T3 construct: purchased Invitrogen (SelectScreen platform)
Procedure: as §1, §2, §3, §4, §5, §6

PRKCD (PKC delta) = target: T4, PRKCD (PKC delta) (Homo sapiens, UniProt Q05655); experiment: SelectScreen kinase specificity survey; assay type: biochemical; settings: estimated, abridged dose response curve, read-out: Kinase inhibitory activity EC50
T4 construct: purchased Invitrogen, Inc. (SelectScreen platform)
Procedure: as §1, §2, §3, §4, §5, §6

NEK9 = target: T5, NEK9 (Homo sapiens, UniProt Q8TD19); experiment: SelectScreen kinase specificity survey; assay type: biochemical; settings: estimated, abridged dose response curve, read-out: Kinase inhibitory activity EC50
T5 construct: purchased Invitrogen, Inc. (SelectScreen service)
Procedure: as §1, §2, §3, §4, §5, §6

MYLK2 (skMLCK) = target: T6, MYLK2 (skMLCK) (Homo sapiens, UniProt Q9H1R3); experiment: SelectScreen kinase specificity survey; assay type: biochemical; settings: estimated, abridged dose response curve; for EC50: read-out: Kinase inhibitory activity EC50
T6 construct: purchased Invitrogen, Inc. (SelectScreen platform)
Procedure: as §1, §2, §3, §4, §5, §6

CDK5/p35 = target: T7, CDK5/p35 (Homo sapiens, UniProt Q00535); experiment: SelectScreen kinase specificity survey; assay type: biochemical; settings: estimated, abridged dose response curve, read-out: Kinase inhibitory activity EC50
T7 construct: purchased Invitrogen (SelectScreen platform)
T7 sequence (Q00535 whole entry): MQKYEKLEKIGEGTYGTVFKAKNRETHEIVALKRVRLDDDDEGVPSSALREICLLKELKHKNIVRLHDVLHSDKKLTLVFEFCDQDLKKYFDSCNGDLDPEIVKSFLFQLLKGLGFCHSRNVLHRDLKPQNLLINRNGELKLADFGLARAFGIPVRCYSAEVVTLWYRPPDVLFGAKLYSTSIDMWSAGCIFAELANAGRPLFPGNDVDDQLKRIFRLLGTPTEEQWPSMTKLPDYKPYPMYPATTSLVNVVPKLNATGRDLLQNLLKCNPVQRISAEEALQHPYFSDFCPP
T7 sequence (Q15078 2-307 partner limits assumed): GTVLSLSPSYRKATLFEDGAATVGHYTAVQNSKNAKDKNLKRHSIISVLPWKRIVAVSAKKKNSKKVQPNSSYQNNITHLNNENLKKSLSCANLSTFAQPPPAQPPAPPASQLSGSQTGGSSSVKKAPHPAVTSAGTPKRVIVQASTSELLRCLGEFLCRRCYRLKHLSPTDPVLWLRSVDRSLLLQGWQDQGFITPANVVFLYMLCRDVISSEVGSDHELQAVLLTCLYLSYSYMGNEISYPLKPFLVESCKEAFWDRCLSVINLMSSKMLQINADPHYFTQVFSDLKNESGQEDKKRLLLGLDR
Procedure: as §1, §2, §3, §4, §5, §6

MAP2K1 (MEK1) = target: T8, MAP2K1 (MEK1) (Homo sapiens, UniProt Q02750); experiment: SelectScreen kinase specificity survey; assay type: biochemical; settings: estimated, abridged dose response curve, read-out: Kinase inhibitory activity EC50
T8 construct: purchased Invitrogen (SelectScreen platform)
Procedure: as §1, §2, §3, §4, §5, §6

RPS6KA5 (MSK1) = target: T9, RPS6KA5 (MSK1) (Homo sapiens, UniProt O75582); experiment: SelectScreen kinase specificity survey; assay type: biochemical; settings: estimated, abridged dose response curve, read-out: Kinase inhibitory activity EC50
T9 construct: purchased Invitrogen, Inc. (SelectScreen platform)
T9 sequence (O75582 whole entry): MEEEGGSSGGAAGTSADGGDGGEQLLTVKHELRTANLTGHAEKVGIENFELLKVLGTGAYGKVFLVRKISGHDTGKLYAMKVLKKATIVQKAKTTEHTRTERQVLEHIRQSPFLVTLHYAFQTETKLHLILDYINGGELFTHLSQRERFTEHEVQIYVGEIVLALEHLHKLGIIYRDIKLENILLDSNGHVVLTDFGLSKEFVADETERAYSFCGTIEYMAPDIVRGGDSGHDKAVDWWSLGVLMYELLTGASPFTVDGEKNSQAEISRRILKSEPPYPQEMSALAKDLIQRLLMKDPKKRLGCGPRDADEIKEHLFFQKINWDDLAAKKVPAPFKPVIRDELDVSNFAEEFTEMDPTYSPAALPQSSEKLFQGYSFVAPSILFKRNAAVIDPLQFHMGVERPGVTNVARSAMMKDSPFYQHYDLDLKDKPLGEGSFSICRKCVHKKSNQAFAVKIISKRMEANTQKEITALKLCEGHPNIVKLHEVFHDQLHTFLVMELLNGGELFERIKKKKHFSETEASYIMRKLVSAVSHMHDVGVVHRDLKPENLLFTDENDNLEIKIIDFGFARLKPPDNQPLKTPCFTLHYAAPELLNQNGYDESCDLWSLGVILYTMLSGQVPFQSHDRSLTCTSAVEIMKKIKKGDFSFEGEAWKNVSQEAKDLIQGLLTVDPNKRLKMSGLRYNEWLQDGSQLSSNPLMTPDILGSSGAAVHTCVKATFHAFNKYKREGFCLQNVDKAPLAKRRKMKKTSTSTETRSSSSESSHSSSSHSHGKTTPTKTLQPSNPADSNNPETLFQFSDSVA
Procedure: as §1, §2, §3, §4, §5, §6

PIM1 = target: T10, PIM1 (Homo sapiens, UniProt P11309); experiment: SelectScreen kinase specificity survey; assay type: biochemical; settings: estimated, abridged dose response curve, read-out: Kinase inhibitory activity EC50
T10 construct: purchased Invitrogen, Inc. (SelectScreen platform)
Procedure: as §1, §2, §3, §4, §5, §6

NTRK2 (TRKB) = target: T11, NTRK2 (TRKB) (Homo sapiens, UniProt Q16620); experiment: SelectScreen kinase specificity survey; assay type: biochemical
T11 construct: purchased Invitrogen (SelectScreen)
T11 sequence (Q16620 32-822): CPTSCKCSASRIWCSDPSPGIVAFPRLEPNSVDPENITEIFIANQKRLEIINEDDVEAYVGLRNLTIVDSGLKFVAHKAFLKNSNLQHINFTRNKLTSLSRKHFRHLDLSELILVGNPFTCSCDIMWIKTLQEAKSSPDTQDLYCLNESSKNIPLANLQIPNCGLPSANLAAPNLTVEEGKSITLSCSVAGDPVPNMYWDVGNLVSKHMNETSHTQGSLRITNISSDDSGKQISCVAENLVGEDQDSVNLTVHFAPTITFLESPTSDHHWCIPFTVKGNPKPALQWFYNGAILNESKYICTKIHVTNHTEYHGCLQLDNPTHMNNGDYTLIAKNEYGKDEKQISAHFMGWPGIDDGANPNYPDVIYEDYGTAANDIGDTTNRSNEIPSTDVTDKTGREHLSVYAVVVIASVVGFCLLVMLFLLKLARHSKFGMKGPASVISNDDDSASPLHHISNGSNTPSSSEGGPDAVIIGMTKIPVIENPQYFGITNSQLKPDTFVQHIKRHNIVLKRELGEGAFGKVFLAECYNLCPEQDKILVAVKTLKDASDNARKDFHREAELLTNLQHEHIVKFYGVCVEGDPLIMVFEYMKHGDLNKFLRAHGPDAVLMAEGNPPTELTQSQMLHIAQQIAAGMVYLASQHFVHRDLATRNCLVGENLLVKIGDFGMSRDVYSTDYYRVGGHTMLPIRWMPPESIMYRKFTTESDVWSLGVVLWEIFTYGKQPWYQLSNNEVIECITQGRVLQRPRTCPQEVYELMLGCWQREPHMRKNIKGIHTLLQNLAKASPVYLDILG
Procedure: as §1, §2, §3, §4, §5, §6

NEK6 = target: T12, NEK6 (Homo sapiens, UniProt Q9HC98); experiment: SelectScreen kinase specificity survey; assay type: biochemical; settings: estimated, abridged dose response curve, read-out: Kinase inhibitory activity EC50
T12 construct: purchased Invitrogen, Inc. (SelectScreen service)
T12 sequence (Q9HC98 whole entry): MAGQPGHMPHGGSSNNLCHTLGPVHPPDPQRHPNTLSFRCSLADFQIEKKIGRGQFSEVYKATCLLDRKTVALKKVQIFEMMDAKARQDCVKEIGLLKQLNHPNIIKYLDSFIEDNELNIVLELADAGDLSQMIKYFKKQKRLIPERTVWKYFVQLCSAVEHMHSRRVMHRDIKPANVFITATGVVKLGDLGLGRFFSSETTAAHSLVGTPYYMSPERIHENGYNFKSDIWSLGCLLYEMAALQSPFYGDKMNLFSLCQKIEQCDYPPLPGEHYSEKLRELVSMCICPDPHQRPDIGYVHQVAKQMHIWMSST
Procedure: as §1, §2, §3, §4, §5, §6

PRKG2 (PKG2) = target: T13, PRKG2 (PKG2) (Homo sapiens, UniProt Q13237); experiment: SelectScreen kinase specificity survey; assay type: biochemical; settings: estimated, abridged dose response curve, read-out: Kinase inhibitory activity EC50
T13 construct: purchased Invitrogen, Inc. (SelectScreen platform)
Procedure: as §1, §2, §3, §4, §5, §6

MAPKAPK2 = target: T14, MAPKAPK2 (Homo sapiens, UniProt P49137); experiment: SelectScreen kinase specificity survey; assay type: biochemical; settings: estimated, abridged dose response curve, read-out: Kinase inhibitory activity EC50
T14 construct: purchased Invitrogen, Inc. (SelectScreen platform)
Procedure: as §1, §2, §3, §4, §5, §6

SRC = target: T15, SRC (Homo sapiens, UniProt P12931); experiment: SelectScreen kinase specificity survey; assay type: biochemical; settings: estimated, abridged dose response curve, read-out: Kinase inhibitory activity EC50
T15 construct: purchased Invitrogen (SelectScreen)
Procedure: as §1, §2, §3, §4, §5, §6

ABL1 T315I = target: T16, ABL1 T315I (Homo sapiens, UniProt P00519, T315I); experiment: SelectScreen kinase specificity survey; assay type: biochemical; settings: estimated, abridged dose response curve, read-out: Kinase inhibitory activity EC50
T16 construct: purchased Invitrogen (SelectScreen platform)
Procedure: as §1, §2, §3, §4, §5, §6

AXL = target: T17, AXL (Homo sapiens, UniProt P30530); experiment: SelectScreen kinase specificity survey; assay type: biochemical; settings: estimated, abridged dose response curve, read-out: Kinase inhibitory activity EC50
T17 construct: purchased Invitrogen (SelectScreen service)
Procedure: as §1, §2, §3, §4, §5, §6

CDC42 BPB (MRCKB) = target: T18, CDC42 BPB (MRCKB) (Homo sapiens, UniProt Q9Y5S2); experiment: SelectScreen kinase specificity survey; assay type: biochemical; settings: estimated, abridged dose response curve, read-out: Kinase inhibitory activity EC50
T18 construct: purchased Invitrogen (SelectScreen platform)
T18 sequence (Q9Y5S2 whole entry): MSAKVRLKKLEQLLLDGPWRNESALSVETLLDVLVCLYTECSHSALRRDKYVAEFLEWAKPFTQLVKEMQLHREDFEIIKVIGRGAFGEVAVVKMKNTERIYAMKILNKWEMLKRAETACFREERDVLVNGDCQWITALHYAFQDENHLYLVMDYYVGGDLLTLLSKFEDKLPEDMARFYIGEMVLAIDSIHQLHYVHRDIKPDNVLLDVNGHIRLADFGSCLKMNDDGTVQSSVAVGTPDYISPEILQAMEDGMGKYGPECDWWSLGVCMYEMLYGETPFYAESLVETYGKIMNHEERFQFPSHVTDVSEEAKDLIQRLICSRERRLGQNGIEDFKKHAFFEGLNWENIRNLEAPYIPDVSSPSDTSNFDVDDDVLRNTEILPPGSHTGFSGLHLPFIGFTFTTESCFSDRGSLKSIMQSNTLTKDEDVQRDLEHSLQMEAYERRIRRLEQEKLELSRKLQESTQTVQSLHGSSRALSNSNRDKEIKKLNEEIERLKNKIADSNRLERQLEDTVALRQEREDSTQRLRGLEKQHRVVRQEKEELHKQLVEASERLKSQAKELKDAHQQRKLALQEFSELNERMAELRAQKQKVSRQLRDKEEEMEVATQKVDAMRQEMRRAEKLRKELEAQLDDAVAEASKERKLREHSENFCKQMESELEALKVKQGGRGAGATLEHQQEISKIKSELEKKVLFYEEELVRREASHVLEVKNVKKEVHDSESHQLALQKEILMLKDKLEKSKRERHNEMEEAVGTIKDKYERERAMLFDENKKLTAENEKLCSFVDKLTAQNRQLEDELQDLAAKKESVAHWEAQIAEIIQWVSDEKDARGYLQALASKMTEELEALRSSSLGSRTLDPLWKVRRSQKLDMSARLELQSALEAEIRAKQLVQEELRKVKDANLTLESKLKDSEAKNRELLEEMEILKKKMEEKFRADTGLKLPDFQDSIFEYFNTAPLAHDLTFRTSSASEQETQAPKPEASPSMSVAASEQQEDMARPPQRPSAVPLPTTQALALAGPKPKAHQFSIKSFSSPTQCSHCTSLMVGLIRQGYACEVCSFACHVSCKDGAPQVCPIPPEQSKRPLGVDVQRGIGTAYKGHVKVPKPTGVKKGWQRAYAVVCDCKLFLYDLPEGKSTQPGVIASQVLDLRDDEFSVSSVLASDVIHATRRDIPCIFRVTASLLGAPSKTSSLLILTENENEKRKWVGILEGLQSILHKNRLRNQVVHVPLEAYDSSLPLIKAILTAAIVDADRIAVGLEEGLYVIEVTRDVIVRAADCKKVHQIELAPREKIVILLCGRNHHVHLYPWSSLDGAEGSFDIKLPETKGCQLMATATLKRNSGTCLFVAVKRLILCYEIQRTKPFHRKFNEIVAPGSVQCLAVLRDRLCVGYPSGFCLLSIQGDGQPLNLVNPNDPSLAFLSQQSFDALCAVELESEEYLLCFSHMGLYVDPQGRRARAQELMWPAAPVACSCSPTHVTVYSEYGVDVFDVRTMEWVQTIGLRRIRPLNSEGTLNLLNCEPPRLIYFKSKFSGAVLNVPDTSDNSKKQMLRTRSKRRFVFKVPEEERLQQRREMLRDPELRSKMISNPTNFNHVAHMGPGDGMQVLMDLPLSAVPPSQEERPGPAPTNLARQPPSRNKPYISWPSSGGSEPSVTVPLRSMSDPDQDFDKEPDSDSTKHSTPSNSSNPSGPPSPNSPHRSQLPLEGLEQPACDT
Procedure: as §1, §2, §3, §4, §5, §6

ABL1 G250E = target: T19, ABL1 G250E (Homo sapiens, UniProt P00519, G250E); experiment: SelectScreen kinase specificity survey; assay type: biochemical; settings: estimated, abridged dose response curve, read-out: Kinase inhibitory activity EC50
T19 construct: purchased Invitrogen (SelectScreen platform)
Procedure: as §1, §2, §3, §4, §5, §6

LTK (TYK1) = target: T20, LTK (TYK1) (Homo sapiens, UniProt P29376); experiment: SelectScreen kinase specificity survey; assay type: biochemical; settings: estimated, abridged dose response curve, read-out: Kinase inhibitory activity EC50
T20 construct: purchased Invitrogen (SelectScreen platform)
T20 sequence (P29376 17-864): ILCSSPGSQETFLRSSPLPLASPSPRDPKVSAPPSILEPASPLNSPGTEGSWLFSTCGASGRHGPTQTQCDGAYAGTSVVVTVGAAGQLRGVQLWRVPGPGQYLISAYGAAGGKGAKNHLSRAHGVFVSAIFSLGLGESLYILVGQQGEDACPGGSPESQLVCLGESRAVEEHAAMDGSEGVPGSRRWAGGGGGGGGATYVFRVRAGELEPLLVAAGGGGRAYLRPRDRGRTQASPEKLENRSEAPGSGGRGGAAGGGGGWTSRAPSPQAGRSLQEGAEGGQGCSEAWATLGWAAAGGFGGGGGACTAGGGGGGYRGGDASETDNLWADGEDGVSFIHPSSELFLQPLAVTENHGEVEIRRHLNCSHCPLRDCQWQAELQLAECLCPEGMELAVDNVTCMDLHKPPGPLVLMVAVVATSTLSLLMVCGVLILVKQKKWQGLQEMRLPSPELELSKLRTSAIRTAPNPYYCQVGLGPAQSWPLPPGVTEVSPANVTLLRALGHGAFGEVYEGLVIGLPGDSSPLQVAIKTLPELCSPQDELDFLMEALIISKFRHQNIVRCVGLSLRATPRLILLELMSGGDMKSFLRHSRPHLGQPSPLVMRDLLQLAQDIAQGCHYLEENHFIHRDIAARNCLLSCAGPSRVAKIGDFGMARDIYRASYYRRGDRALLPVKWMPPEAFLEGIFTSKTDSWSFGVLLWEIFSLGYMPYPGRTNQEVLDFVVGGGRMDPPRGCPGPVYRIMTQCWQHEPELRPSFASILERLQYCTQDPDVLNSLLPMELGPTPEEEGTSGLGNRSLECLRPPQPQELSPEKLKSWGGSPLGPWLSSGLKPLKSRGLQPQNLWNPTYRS
Procedure: as §1, §2, §3, §4, §5, §6

Mda231 cells = experiment: BME cell invasion assay (Boyden chamber principle); assay type: cell-based; settings: 24 hours
Procedure: Representative compounds were tested for their ability to inhibit invasion of Mda231 cells. Invasive cells are a mark of metastatic tumors. The in vitro invasion assay is based on the Boyden chamber assay principle.
The 96-well BME cell invasion assay kit was used according to the manufacturers' protocol (Culturex™ catalog number: 3455-096-K). Prior to assay cells were serum starved for 18 hrs and the membrane of the top invasion chamber was coated with 50 μl of 0.83× BME solution and incubated overnight at 37° C./5% CO2. The next day cells were harvested and 40.000 cells/well in 50 μl medium without serum were plated to top chamber. 150 μl of medium with serum was added to bottom chamber. Compounds were added and cells were incubated for 24 hrs at 37° C./5% CO2. The remaining cells were assayed for standard curve.
After 24 hours, the bottom chamber was aspirated and washed twice with 200 μl wash buffer. The bottom chamber was transferred to a black assay plate. Cells migrated through the membrane are stained with Calcein-AM and measured with fluorescence spectrophotometry; 150 μl Calcein-AM/Cell dissociation solution was added and incubated at 37° C./5% CO2. After 1 hour, the plate was read at 485 nm excitation, 520 nm emission. Using standard curve, the fluorescence signal measured was converted to cell number and percent invasion was determined.

| SMILES | EC50 (EPHB2) [µM] | EC50 (MATK (HYL, CTK)) [µM] | EC50 (DYRK3) [µM] | EC50 (PRKCD (PKC delta)) [µM] | EC50 (NEK9) [µM] | EC50 (MYLK2 (skMLCK)) [µM] | EC50 (CDK5/p35) [µM] | EC50 (MAP2K1 (MEK1)) [µM] | EC50 (RPS6KA5 (MSK1)) [µM] | EC50 (PIM1) [µM] | EC50 (NEK6) [µM] | EC50 (PRKG2 (PKG2)) [µM] | EC50 (MAPKAPK2) [µM] | EC50 (SRC) [µM] | EC50 (ABL1 T315I) [µM] | EC50 (AXL) [µM] | EC50 (CDC42 BPB (MRCKB)) [µM] | EC50 (ABL1 G250E) [µM] | EC50 (LTK (TYK1)) [µM] | inhibition of cell invasion (Mda231 cells) | also measured |
| --- | --- | --- | --- | --- | --- | --- | --- | --- | --- | --- | --- | --- | --- | --- | --- | --- | --- | --- | --- | --- | --- |
| CCN(CC)CCNc1ccc2ncn3c4ccc(O)cc4c(=O)c1c23 [Symadex, 5-(2-(diethylamino)ethylamino)-8-hydroxy-6H-imidazo[4,5,1-de]acridin-6-one, reference compound] | > 5 | > 5 | 0.611 | > 5 | > 5 | 0.041 | > 5 | > 5 | > 5 | 0.959 | > 5 | 2.85 | > 5 | 4.41 | > 5 | 3.77 | > 5 | > 5 | > 5 |  | EC50 (NTRK2 (TRKB)): > 5 µM |
| CN1CCN(CCCNc2ccc3ncn4c5ccc6[nH]ncc6c5c(=O)c2c34)CC1 [(XVII)] |  |  |  |  |  |  |  |  |  |  |  |  |  |  |  |  |  |  |  | slightly more effective than Symadex |  |
| CN(C)CCCNc1ccc2ncn3c4ccc5[nH]ncc5c4c(=O)c1c23 [Compound (IV)] | > 5 | > 5 | 0.38 | > 5 | 2.93 | 0.015 | 2.8 | > 5 | > 5 | 3.42 | > 5 | 1.91 | > 5 | 0.437 | > 5 | 4.44 | 3.63 | 4.05 | > 5 |  | Kinase inhibitory activity EC50 (MYLK2 (skMLCK)): low nM; EC50 (NTRK2 (TRKB); NTRK2 (TRKB), estimated, abridged dose response curve, read-out: Kinase inhibitory activity EC50): 0.78 µM |
| CCN(CC)CCCNc1ccc2ncn3c4ccc5[nH]ncc5c4c(=O)c1c23 [Compound (XV)] |  |  |  |  |  |  |  |  |  |  |  |  |  |  |  |  |  |  |  | slightly more effective than Symadex |  |
